# Target: T1, HGFR (Homo sapiens, UniProt P08581)
# T1 construct: purchased Upstate 14-526
# Assay: HGFR continuous-coupled spectrophotometric assay
# Type: biochemical
# Conditions: not given
# T1 sequence (P08581 974-1390 limits assumed): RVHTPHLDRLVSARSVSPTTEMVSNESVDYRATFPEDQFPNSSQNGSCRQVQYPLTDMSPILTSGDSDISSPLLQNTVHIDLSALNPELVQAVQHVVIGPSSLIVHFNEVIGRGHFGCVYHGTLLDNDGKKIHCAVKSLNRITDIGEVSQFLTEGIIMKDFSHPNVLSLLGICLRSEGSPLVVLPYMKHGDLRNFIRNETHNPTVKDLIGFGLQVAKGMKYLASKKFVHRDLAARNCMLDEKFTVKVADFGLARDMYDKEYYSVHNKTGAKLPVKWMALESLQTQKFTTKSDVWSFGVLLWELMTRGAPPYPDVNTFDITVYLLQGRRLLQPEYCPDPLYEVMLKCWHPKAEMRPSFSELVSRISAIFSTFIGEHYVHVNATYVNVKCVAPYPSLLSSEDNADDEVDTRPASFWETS
Compound,% inhibition,inhibition at 1 µM [%]
Nc1ncc(-c2ccc(C(=O)N3CCC(N4CCCC4)CC3)cc2)cc1OCc1cccc(C(=O)Nc2cccnc2)c1,% inhibition = 10,–
CN(C)CCNC(=O)c1ccc(COc2cc(-c3ccc(C(=O)N4CCC(N5CCCC5)CC4)cc3)cnc2N)cc1,% inhibition = 9,–
Nc1ncc(-c2ccc(C(=O)N3CCC(N4CCCC4)CC3)cc2)cc1OCc1ccc(C(=O)c2ccccc2)cc1,% inhibition = 31,–
Nc1ncc(-c2ccc(C(=O)N3CCC(N4CCCC4)CC3)cc2)cc1OCc1nc2ccccc2[nH]1,% inhibition = 4,–
Nc1ncc(-c2ccc(C(=O)N3CCC(N4CCCC4)CC3)cc2)cc1OCc1nc2cccnc2[nH]1,% inhibition = 17,–
Nc1ncc(-c2ccc(C(=O)N3CCC(N4CCCC4)CC3)cc2)cc1COc1ccc2ccccc2c1,% inhibition = 27,–
Nc1ncc(C(=O)N2CCC(=O)CC2)cc1OCc1c(Cl)cccc1Cl,–,44
CC(=O)Nc1nc(COc2cc(-c3ccc(C(=O)N4CCC(N5CCCC5)CC4)cc3)cnc2N)cs1,% inhibition = 9,–
Cc1cc(C)n2nc(COc3cc(-c4ccc(C(=O)N5CCC(N6CCCC6)CC5)cc4)cnc3N)nc2n1,% inhibition = 18,–
COc1cccc(COc2cc(-c3ccc(C(=O)N4CCC(N5CCCC5)CC4)cc3)cnc2N)c1OC,% inhibition = 23,–
Nc1ncc(-c2ccc(C(=O)N3CCC(N4CCCC4)CC3)cc2)cc1OCc1ccc(Cl)cc1Br,% inhibition = 28,–
COCOc1ccc(S(=O)(=O)c2ccc(COc3cc(-c4ccc(C(=O)N5CCC(N6CCCC6)CC5)cc4)cnc3N)cc2)cc1,% inhibition = 18,–
COC(=O)c1ccc(COc2cc(-c3ccc(C(=O)N4CCC(N5CCCC5)CC4)cc3)cnc2N)c(OC)c1,% inhibition = 15,–
Nc1ncc(-c2ccc(C(=O)N3CCC(N4CCCC4)CC3)cc2)cc1OCc1ccccc1OC(F)F,% inhibition = 27,–
Nc1ncc(-c2ccc(C(=O)N3CCC(N4CCCC4)CC3)cc2)cc1OCc1nc(-c2ccccn2)no1,% inhibition = 9,–
CCc1nc(COc2cc(-c3ccc(C(=O)N4CCC(N5CCCC5)CC4)cc3)cnc2N)no1,% inhibition = 5,–
Nc1ncc(-c2ccc(C(=O)N3CCC(N4CCCC4)CC3)cc2)cc1OCc1nsc(Cl)n1,% inhibition = 5,–
COc1ccnc(COc2cc(-c3ccc(C(=O)N4CCC(N5CCCC5)CC4)cc3)cnc2N)c1OC,% inhibition = 23,–

Compound,% inhibition,inhibition at 1 µM [%]
Nc1ncc(-c2ccc(C(=O)N3CCC(N4CCCC4)CC3)cc2)cc1OCc1ccc(C(F)(F)F)cc1,% inhibition = 10,–
CCCCc1nc(COc2cc(-c3ccc(C(=O)N4CCC(N5CCCC5)CC4)cc3)cnc2N)c[nH]1,% inhibition = 16,–
COc1ccccc1-c1nc(COc2cc(-c3ccc(C(=O)N4CCC(N5CCCC5)CC4)cc3)cnc2N)no1,% inhibition = 8,–
Cc1cc(C)cc(COc2cc(-c3ccc(C(=O)N4CCC(N5CCCC5)CC4)cc3)cnc2N)c1,% inhibition = 14,–
Nc1ncc(-c2ccc(C(=O)N3CCC(N4CCCC4)CC3)cc2)cc1OCc1cc(F)cc(F)c1,% inhibition = 14,–
Nc1ncc(-c2ccc(C(=O)N3CCC(N4CCCC4)CC3)cc2)cc1OCc1nc(NCCO)c2ccccc2n1,% inhibition = 7,–
Nc1ncc(-c2ccc(C(=O)N3CCC(N4CCCC4)CC3)cc2)cc1OCc1ccc(S(=O)(=O)N2CCOCC2)cc1,% inhibition = 14,–
Nc1ncc(-c2ccc(C(=O)N3CCC(N4CCCC4)CC3)cc2)cc1OCc1cc(-c2ccc(Cl)cc2)no1,% inhibition = 23,–
COc1c(C)cnc(COc2cc(-c3ccc(C(=O)N4CCC(N5CCCC5)CC4)cc3)cnc2N)c1C,% inhibition = 20,–
Nc1ncc(-c2ccc(C(=O)N3CCC(N4CCCC4)CC3)cc2)cc1OCc1cccc(C(=O)Nc2ccc(N3CCCCC3)cc2)c1,% inhibition = 32,–
Cn1c(COc2cc(-c3ccc(C(=O)N4CCC(N5CCCC5)CC4)cc3)cnc2N)nc2ccccc21,% inhibition = 10,–
Cc1cccnc1COc1cc(-c2ccc(C(=O)N3CCC(N4CCCC4)CC3)cc2)cnc1N,% inhibition = 16,–
Nc1ncc(-c2ccc(C(=O)N3CCC(N4CCCC4)CC3)cc2)cc1OCc1cccc(Oc2ccccc2)c1,% inhibition = 34,–
CC(C)c1ccc(COc2cc(-c3ccc(C(=O)N4CCC(N5CCCC5)CC4)cc3)cnc2N)cc1,% inhibition = 32,–
Nc1ncc(-c2ccc(C(=O)N3CCC(N4CCCC4)CC3)cc2)cc1OCc1cc(C(F)(F)F)ccc1Cl,% inhibition = 26,–
Cc1noc(C)c1-c1nc(COc2cc(-c3ccc(C(=O)N4CCC(N5CCCC5)CC4)cc3)cnc2N)no1,% inhibition = 6,–
Nc1ncc(-c2ccc(C(=O)N3CCC(N4CCCC4)CC3)cc2)cc1OCc1ccc2ccc(Cl)cc2n1,% inhibition = 24,–
COc1ccc(OC)c(COc2cc(-c3ccc(C(=O)N4CCC(N5CCCC5)CC4)cc3)cnc2N)c1,% inhibition = 19,–

# Same assay, conditions: Table 3; Ki(μM) or I(%)
row,Compound,Ki [µM]
1,"CC(Oc1cc(-c2ccccc2F)cnc1N)c1c(Cl)ccc(F)c1Cl (stereo not shown) [Example I-563, 3-[1-(2,6-Dichloro-3-fluoro-phenyl)-ethoxy]-5-(2-fluoro-phenyl)-pyridin-2-ylamine]",0.433

# Same assay, conditions: Table 3; Ki(μM) or I(%); test concentration not given
row,Compound,I(%)
1,"COc1cccc(OC)c1-c1cnc(N)c(OC(C)c2c(Cl)ccc(F)c2Cl)c1 (stereo not shown) [Example I-558, 3-[1-(2,6-Dichloro-3-fluoro-phenyl)-ethoxy]-5-(2,6-dimethoxy-phenyl)-pyridin-2-ylamine]",2
2,CC(Oc1cc(-c2nccn2C)cnc1N)c1c(Cl)ccc(F)c1Cl (stereo not shown) [Example I-652],11
3,"CC1CN(C(=O)c2ccc(-c3cnc(N)c(OCc4c(F)cccc4F)c3)cc2)CC(C)N1 (stereo not shown) [Example I-620, {4-[6-Amino-5-(2,6-difluoro-benzyloxy)-pyridin-3-yl]-phenyl}-(3,5-dimethyl-piperazin-1-yl)-methanone]",5
4,"Cc1cc(C)c(C)c(COc2cc(-c3ccc(C(=O)N4CCC(N5CCCC5)CC4)cc3)cnc2N)c1C [Example I-654, {4-[6-Amino-5-(2,3,5,6-tetramethyl-benzyloxy)-pyridin-3-yl]-phenyl)-(4-pyrrolidin-1-yl-piperidin-1-yl)-methanone]",9
5,"COC(=O)c1ccc(-c2cnc(N)c(OC(C)c3c(Cl)ccc(F)c3Cl)c2)c(C)c1 (stereo not shown) [Example I-548, 4-{6-Amino-5-[1-(2,6-dichloro-3-fluoro-phenyl)-ethoxy]-Pyndin-3-yl}-3-methyl-benzoic acid methyl ester]",17
6,"Cc1ccccc1COc1cc(-c2ccc(C(=O)N3CCC(N4CCCC4)CC3)cc2)cnc1N [Example I-627, {4-[6-Amino-5-(2-methyl-benzxloxy)-pyridin-3-yl]-phenyl}-(4-pyrrolidin-1-yl-piperidin-1-yl)-methanone]",6

# Same assay, conditions: Table 5; percent c-MET inhibition at 50 nM
row,Compound,inhibition at 0.05 µM [%]
1,CC(Oc1cc(-c2ccc(C(=O)NC[C@H](O)c3ccccc3)cc2)cnc1N)c1c(Cl)ccc(F)c1Cl (stereo partly shown),69
2,CC(O)CCNC(=O)c1ccc(-c2cnc(N)c(OC(C)c3c(Cl)ccc(F)c3Cl)c2)cc1 (stereo not shown),77
3,CC(Oc1cc(-c2ccc(C(=O)N[C@H]3CC[C@H](O)CC3)cc2)cnc1N)c1c(Cl)ccc(F)c1Cl (stereo partly shown) [drawing 1039],73
4,CC(Oc1cc(-c2ccc(C(=O)NCC(c3ccc[nH]3)C(F)(F)F)cc2)cnc1N)c1c(Cl)ccc(F)c1Cl (stereo not shown),70
5,CC(Oc1cc(-c2ccc(C(=O)N3CCCC(O)C3)cc2)cnc1N)c1c(Cl)ccc(F)c1Cl (stereo not shown),85

# Same assay, conditions: Table 6; percent c-MET inhibition at 1 μM; read-out: % inhibition
row,Compound,inhibition at 1 µM [%]
1,COc1ccccc1CNC(=O)c1cnc(N)c(OCc2c(Cl)cccc2Cl)c1,32
2,Nc1ncc(C(=O)N2CCCC(C(=O)N3CCCC3)C2)cc1OCc1c(Cl)cccc1Cl (stereo not shown),47
3,Nc1ncc(C(=O)NCCc2ccc(S(N)(=O)=O)cc2)cc1OCc1c(Cl)cccc1Cl,30
4,Cc1ccc2c(c1)C(NC(=O)c1cnc(N)c(OCc3c(Cl)cccc3Cl)c1)CCO2 (stereo not shown),17
5,CN1CCC(N(C)C(=O)c2cnc(N)c(OCc3c(Cl)cccc3Cl)c2)C1 (stereo not shown),33
6,Nc1ncc(C(=O)NCc2c(F)cccc2C(F)(F)F)cc1OCc1c(Cl)cccc1Cl,33
7,Nc1ncc(C(=O)N[C@@H]2CCC[C@H]2OCc2ccccc2)cc1OCc1c(Cl)cccc1Cl,16
8,Nc1ncc(C(=O)NC[C@H]2CC[C@H](c3nc4ccccc4[nH]3)CC2)cc1OCc1c(Cl)cccc1Cl,38
9,Nc1ncc(C(=O)NCCC2CCC(=O)N2CCc2ccc(O)cc2)cc1OCc1c(Cl)cccc1Cl (stereo not shown),16
10,CCN1CCCC(NC(=O)c2cnc(N)c(OCc3c(Cl)cccc3Cl)c2)C1 (stereo not shown),19
11,Nc1ncc(C(=O)N2CCC3(CCNC3=O)CC2)cc1OCc1c(Cl)cccc1Cl,27
12,Cn1ccnc1SCC1(O)CCCN(C(=O)c2cnc(N)c(CCc3c(Cl)cccc3Cl)c2)CC1 (stereo not shown),35
13,CN(C)C1CCN(C(=O)c2cnc(N)c(OCc3c(Cl)cccc3Cl)c2)C1 (stereo not shown),33
14,Nc1ncc(C(=O)N2CCN(CC(=O)N3CCCC3)CC2)cc1OCc1c(Cl)cccc1Cl,32
15,Nc1ncc(C(=O)NCC2=CSC3=NCCN23)cc1OCc1c(Cl)cccc1Cl,99
16,Nc1ncc(C(=O)N2CCC(CO)CC2)cc1OCc1c(Cl)cccc1Cl,43
17,Nc1ncc(C(=O)N2CCC(O)(CN3CCCC3=O)C2)cc1OCc1c(Cl)cccc1Cl (stereo not shown),20
18,CC(C)CC(NC(=O)c1cnc(N)c(OCc2c(Cl)cccc2Cl)c1)C(N)=O (stereo not shown),40
19,CCCOCCNC(=O)c1cnc(N)c(OCc2c(Cl)cccc2Cl)c1,45
20,CC(CCCC(C)(C)O)NC(=O)c1cnc(N)c(OCc2c(Cl)cccc2Cl)c1 (stereo not shown),35
21,N#CCCN1CCN(C(=O)c2cnc(N)c(OCc3c(Cl)cccc3Cl)c2)CC1,19
22,Nc1ncc(C(=O)N2CCNC(=O)C2)cc1OCc1c(Cl)cccc1Cl,22
23,CN(CCC(O)c1ccccc1)C(=O)c1cnc(N)c(OCc2c(Cl)cccc2Cl)c1 (stereo not shown),28
24,Nc1ncc(C(=O)NCCCO)cc1OCc1c(Cl)cccc1Cl,26
25,CN(C)c1ccc(CNC(=O)c2cnc(N)c(OCc3c(Cl)cccc3Cl)c2)cc1,30
